Like-named read-outs stand apart in the source and are kept apart here.
Key:
Assay in all cases: ITC ([…] °C); DSC ΔTm […] °C
Format in all cases: binding
Athe_2052 [1] = molecular target: T1, Athe_2052 (Caldicellulosiruptor bescii, UniProt B9MLD9)
T1 construct: Athe_2052 without its signal peptide, N-terminal hexa-histidine tag

Athe_2052 [2] = molecular target: T1, Athe_2052; remark: listed apart in the source
Athe_2052 [3] = molecular target: T1, Athe_2052; remark: listed apart in the source

T1 sequence (B9MLD9 entry or part of it): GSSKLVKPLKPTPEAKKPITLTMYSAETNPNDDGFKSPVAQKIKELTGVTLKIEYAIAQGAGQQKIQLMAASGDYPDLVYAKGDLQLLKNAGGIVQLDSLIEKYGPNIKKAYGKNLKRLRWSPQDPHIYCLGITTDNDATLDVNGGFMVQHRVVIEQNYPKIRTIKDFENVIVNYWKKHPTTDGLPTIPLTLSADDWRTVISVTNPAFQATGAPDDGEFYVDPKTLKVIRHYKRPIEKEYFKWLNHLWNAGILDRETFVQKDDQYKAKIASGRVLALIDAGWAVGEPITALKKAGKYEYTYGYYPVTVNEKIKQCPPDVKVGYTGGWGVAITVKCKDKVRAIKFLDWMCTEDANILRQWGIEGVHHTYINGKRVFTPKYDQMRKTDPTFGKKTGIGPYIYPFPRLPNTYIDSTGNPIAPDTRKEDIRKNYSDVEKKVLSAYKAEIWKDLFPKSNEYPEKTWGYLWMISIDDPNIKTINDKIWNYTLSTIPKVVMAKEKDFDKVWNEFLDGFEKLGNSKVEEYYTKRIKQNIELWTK

With `OC[C@H]1O[C@@H](O[C@H]2[C@H](O)[C@@H](O)[C@H](O[C@H]3[C@H](O)[C@@H](O)C(O)O[C@@H]3CO)O[C@@H]2CO)[C@H](O)[C@@H](O)[C@@H]1O` (stereo partly drawn) [Cellotriose] the Kd (Athe_2052 [1]) was 247 nM.

Compound `OC[C@H]1O[C@@H](O[C@H]2[C@H](O)[C@@H](O)[C@H](O[C@H]3[C@H](O)[C@@H](O)[C@H](O[C@H]4[C@H](O)[C@@H](O)C(O)O[C@@H]4CO)O[C@@H]3CO)O[C@@H]2CO)[C@H](O)[C@@H](O)[C@@H]1O` (stereo partly drawn) [Cellotetraose] has a Kd (Athe_2052 [2]) of 214 nM.

For `OC[C@H]1OC(O)[C@H](O)[C@@H](O)[C@@H]1O[C@@H]1O[C@H](CO[C@H]2OC[C@@H](O)[C@H](O)[C@H]2O)[C@@H](O[C@@H]2O[C@H](CO[C@H]3OC[C@@H](O)[C@H](O)[C@H]3O)[C@@H](O[C@@H]3O[C@H](CO[C@H]4OC[C@@H](O)[C@H](O)[C@H]4O)[C@@H](O)[C@H](O)[C@H]3O)[C@H](O)[C@H]2O)[C@H](O)[C@H]1O` (stereo partly drawn) [XXXG, xyloglucan heptasaccharide], the Kd (Athe_2052 [3]) was 14 nM.

Reference: article doi:10.64898/2025.12.13.694138, “Structural insights into xyloglucan recognition by an ABC transporter from a Gram-positive, thermophilic bacterium” (bioRxiv, 2025)
